The values that follow come from publication PMC11477298, “Small Molecules Inducing Autophagic Degradation of Expanded Polyglutamine Protein through Interaction with Both Mutant ATXN3 and LC3” (International Journal of Molecular Sciences, 2024).

In general, IC50 refers to the concentration at which inhibition is half-maximal.

Format in all cases: cell-based, human
For series [1], the system named is ATXN3-Q75-GFP SH-SY5Y cells. Nature of the series: Western blot of LC3-II:LC3-I ratio. To be noted: compound 10 μM; uninduced = 100%, untreated induced 76%; range over trehalose and the four compounds. The method, then:
For the immunoblotting analysis, ATXN3-Q75-GFP SH-SY5Y cells were seeded in 6-well plates (3 × 10^5/well) and treated with retinoic acid, test compounds, and doxycycline, as described. On day 8, cells were collected and lysed in buffer (50 mM Tris-HCl pH 8.0, 150 mM NaCl, 2 mM EDTA pH 8.0, 0.1% SDS, 0.5% sodium deoxycholate, 1% NP-40) containing the protease inhibitor cocktail (Sigma-Aldrich). After sonication, the lysates were centrifuged (12,000× g for 10 min at 4 °C) and protein concentrations determined (Bradford protein assay; Bio-Rad, Hercules, CA, USA). Aliquots of protein (20 µg) were separated by electrophoresis using 12% SDS-polyacrylamide gel followed by transfer to a polyvinylidene fluoride membrane. After being blocked with 5% skim milk at 4 °C overnight, the membrane was stained with LC3 (1:1000; Medical & Biological Laboratories Co. #PM036, Tokyo, Japan) or GAPDH (glyceraldehyde 3-phosphate dehydrogenase) (1:1000, MDBio #30000002, Taipei, Taiwan) primary antibody at 4 °C overnight. The immune complexes were detected using HRP-conjugated goat anti-rabbit IgG antibody and chemiluminescent substrate, as described.
(A western blot detects proteins with antibodies after separation by electrophoresis.)

The nature of series [2]: MTT compound cytotoxicity assay. To be noted: human, ATXN3-Q75-GFP SH-SY5Y cells, 0.1–100 μM compound, viability analyzed the next day, n = 3. The protocol: For the compound cytotoxicity assay, ATXN3-Q75-GFP SY5Y cells (2 × 10^4) were plated into 96-well dishes, grown for 20 h, and treated with 0.1–100 μM test compounds. After 1 day, 3-(4,5-dimethylthiazol-2-yl)-2,5-diphenyltetrazolium bromide (MTT, 5 mg/mL) (Sigma-Aldrich, St. Louis, MO, USA) was added to the cells and incubated for 3 h at 37 °C. Lysis buffer (10% Triton X-100, 0.1 N HCl, 18% isopropanol) was then added to dissolve the insoluble formazan crystals. The absorbance of the purple-colored solution was measured at optical density (OD) 570 nm by using a FLx800 fluorescence microplate spectrophotometer (Bio-Tek, Winooski, VT, USA). The half-maximal inhibitory concentration (IC50) was calculated through the construction of a dose–response curve.

The subject of series [3] is ATXN3-Q75-GFP SH-SY5Y cells. In words: High-content neurite outgrowth assay. The following applies: compound 10 µM, range over the four named compounds; for Neurite branch: untreated 1.16; for Neurite process: untreated 2.41; for Neurite length: untreated 23.2 µm. The protocol: ATXN3-Q75-GFP SH-SY5Y cells (5 × 10^4/well) were plated onto 24-well plates, with retinoic acid addition (10 µM; Sigma-Aldrich) on day 1 to initiate neuronal differentiation. On day 2, the cells were pretreated with disaccharide trehalose (10 mM, as a positive control) or the studied compounds (10 μM) for 8 h, followed by the addition of doxycycline (5 μg/mL, Sigma-Aldrich) to induce ATXN3-Q75-GFP expression. The cells were kept in the medium containing retinoic acid, the test compound, and doxycycline for 6 days, with the culture medium changed on day 5. ATXN3-Q75 aggregation and neurite outgrowth assays were performed on day 8 using a high-content imaging system (ImageXpress Micro Confocal; Molecular Devices).
For the aggregation assay, cells were stained with Hoechst 33342 (0.1 µg/mL; Sigma-Aldrich) at 37 °C for 30 min. Images of the cells were automatically obtained at excitation/emission wavelengths of 482/536 nm (FITC [fluorescein isothiocyanate] filter) for enhanced GFP and 377/447 nm (DAPI [4′,6-diamidino-2-phenylindole] filter) for nucleus counting. ATXN3-Q75 aggregation was determined by Transfluor technology based on GFP fluorescence intensity. For the neurite outgrowth assay, cells were fixed with 4% paraformaldehyde for 30 min, permeabilized with 0.1% Triton X-100 for 10 min, and blocked by non-specific binding with 3% bovine serum albumin for 20 min. The primary TUBB3 (neuronal class III β-tubulin) antibody (1:1000; BioLegend #802001, San Diego, CA, USA) was used to stain cells at 4 °C overnight, followed by Alexa Fluor 555-donkey anti-rabbit IgG secondary antibody (1:1000; Invitrogen #A-31572) staining for 2 h at room temperature. Nuclei were detected using DAPI (0.1 μg/mL; Sigma-Aldrich). Cell images were obtained at excitation/emission wavelengths of 531/593 nm (TRITC [tetramethylrhodamine] filter) for stained neurites and 377/447 nm (DAPI filter) for nuclei. To quantify neurite outgrowth, microscopic images were segmented with multi-colored masks to assign each outgrowth to a cell body for quantification. Neurite total length (μm) and numbers of process (primary neurites originating from neuronal cell body) and branch (secondary neurites extended from primary neurites) were analyzed (Neurite Outgrowth Application Module; Molecular Devices). In general, […] in each biological replicate were analyzed.

Series [4] has as its system ATXN3-Q75-GFP SH-SY5Y cells. Nature of the series: Confocal microscopy of LC3 puncta, ATXN3-Q75 aggregates and P62 colocalization. To be noted: compound 10 μM, range over trehalose and the four compounds; for Colocalization coefficient of ATXN3-Q75-GFP with LC3 puncta: untreated 0.014; for Colocalization coefficient of LC3 with P62: untreated 0.21; for LC3 puncta per cell: untreated induced 2.7. The method, then:
ATXN3-Q75-GFP SY5Y cells were seeded onto 12-well plates (1 × 10^5/well) containing poly-L-lysine-coated coverslip on day 1; treated with retinoic acid, test compounds, and doxycycline on day 2; and fixed, permeabilized, and blocked on day 8, as described. The primary anti-LC3 antibody (1:1000; Cell Signaling #83506, Danvers, MA, USA) or anti-P62 antibody (1:1500; Cell Signaling #5114) was used to stain cells at 4 °C overnight. After washing with PBS containing 0.1% Tween 20 (PBST), cells were incubated for 2 h at room temperature with Cy5-conjugated (1:1000, Jackson ImmunoResearch 715-175-150) or Alexa Fluor 555-conjugated (1:500; Invitrogen #A-31572) secondary antibody, and washed three times with PBST. Nuclei were detected using DAPI (0.1 μg/mL; Sigma-Aldrich). The stained cells on coverslips were mounted onto microscope slides with Vectashield antifade mounting medium (Vector Laboratories, Newark, CA, USA) and examined using a Zeiss LSM880 confocal microscope (Carl Zeiss AG, Oberkochen, Baden-Württemberg, Germany). Cell images were acquired at excitation/emission wavelengths of 649/666 nm, 482/536 nm, 555/582 nm, and 385/461 nm for stained LC3 puncta, aggregates, P62, and nuclei, respectively. For colocalization, 300 cells from three independent experiments were analyzed and quantified for the proportion of pixels that LC3 (red) colocalized with P62 (yellow) using Mander’s overlap coefficient (MOC) in ZEN software version 2.1 (Carl Zeiss AG).

The structures appear in SMILES notation.

As to `CC(=O)/C(=C\c1ccccc1[N+](=O)[O-])Cc1c(C)[nH]c2ccccc12` [NC009-2], the “Relative LC3-II:LC3-I ratio” value in series [1] is listed as 102–124%. For the same compound, the midpoint of inhibition in series [2], the IC50 at 1 day, lay at 124 µM. In series [3], the Neurite branch is 1.34–1.37, the Neurite process is 2.55–2.57 and the Neurite length is given as 26.1–26.9 µm. Besides, in series [4], the “Colocalization coefficient of ATXN3-Q75-GFP with LC3 puncta” value is given as 0.025–0.030, the “Colocalization coefficient of LC3 with P62” value is given as 0.26–0.29 and the “LC3 puncta per cell” value is reported as 4.6–6.7.
With `O=C(c1ccccc1)c1cc2c(O)cccc2oc1=O` [LM-031], in series [1], the “Relative LC3-II:LC3-I ratio” value was 102–124%. In series [2], the half-inhibitory concentration (IC50) at 1 day was greater than 100 µM. For the same compound, in series [3], the Neurite branch was 1.34–1.37, the Neurite process is listed as 2.55–2.57 and the Neurite length is listed as 26.1–26.9 µm. Moreover, in series [4], the “Colocalization coefficient of ATXN3-Q75-GFP with LC3 puncta” value is given as 0.025–0.030, the “Colocalization coefficient of LC3 with P62” value is reported as 0.26–0.29 and the “LC3 puncta per cell” value was 4.6–6.7.
For the compound `CC(=O)/C(=C\c1ccccc1[N+](=O)[O-])Cc1c[nH]c2ccccc12` [NC009-1], the “Relative LC3-II:LC3-I ratio” value in series [1] is recorded as 102–124%. The IC50 at 1 day in series [2] is 111 µM. Moreover, in series [3], the Neurite branch is on record as 1.34–1.37, the Neurite process was 2.55–2.57 and the Neurite length is 26.1–26.9 µm. In series [4], the “Colocalization coefficient of ATXN3-Q75-GFP with LC3 puncta” value is 0.025–0.030, the “Colocalization coefficient of LC3 with P62” value is 0.26–0.29 and the “LC3 puncta per cell” value was 4.6–6.7.
